Here are results for one molecule from US6469008B2, “(R)-hydroxynefazodone antipsychotic therapy” (Sepracor Inc., priority 1999, dated 2002).

pIC50: −log10 of the molar value.

The term pIC50 denotes −log10 of the IC50, conventionally taken in molar units. For orientation: half-life means how long it takes for the measured level to halve.

One data set has as its target T1, Human D2 receptor (Homo sapiens, UniProt P14416).
T1 construct: expressed in transfected cells; host or cells: A9L cells
The data set can be described thus: Dopamine D2 receptor binding. Conditions: [3H]spiperone, transfected A9L cell membranes. As for the experimental part: (§1) Dopamine and serotonin receptor binding assays were performed in a standard manner with the incubation of membrane preparations in an assay buffer in the presence of a known radioactively labeled specific ligand for the receptor subtypes. Nonspecific binding was determined by assessing binding in the presence of excess ligand. Specific binding was measured as the total labeled ligand bound after the nonspecific binding was subtracted. The effect of the tested agents was measured by determining the competition for the receptor binding across a concentration range. Subsequently, an IC50 was determined for the agents tested. More specific details are provided below for several of the assays performed.
(§2) Aliquots of transfected A9L cell membrane preparations corresponding to 20-40 μg protein are incubated for 60 min at 22° C. in 250 μl of 50 mM Tris-HCl buffer (pH 7.4) containing 120 mM NaCl, 5 mM KCl, 5 mM MgCl2, 1 mM EDTA, 0.3 nM [^3H]spiperone and increasing concentrations of the competing drugs. Nonspecific binding is determined in the presence of 10 μM (+)butaclamol. After incubation, the samples are filtered rapidly under vacuum through glass fiber filters (GF/B, Packard) and rinsed several times with ice-cold 50 mM Tris-HCl using a cell harvester (Packard). Bound radioactivity is measured with a scintillation counter (Topcount, Packard) using a liquid scintillation cocktail (Microscint 0, Packard). The reference compound for this assay is (+)butaclamol.

The target in another data set is T2, 5-HT1B (Homo sapiens, UniProt P28222).
T2 construct: host or cells: membrane preparations
The data set can be described thus: 5-HT1B receptor binding. Conditions: read-out: Serotonin Receptor Binding 5-HT1B (IC50). As for the experimental part:
as §1

The next data set concerns the target T3, 5-HT1D (Homo sapiens, UniProt P28221).
T3 construct: host or cells: membrane preparations
The data set can be described thus: 5-HT1D receptor binding. The note with it: read-out: Serotonin Receptor Binding 5-HT1D (IC50). As for the experimental part:
as §1

Another data set addresses T4, 5-HT5A (Homo sapiens, UniProt P47898).
T4 construct: host or cells: membrane preparations
As to the kind of experiment: 5-HT5A receptor binding. The note with it: read-out: Serotonin Receptor Binding 5-HT5A (IC50). As for the experimental part: as §1

For another data set, the target named is α1 Receptor. The data set can be described thus: α1 receptor binding. The note with it: read-out: α1 Receptor Binding Alpha1 (IC50).
For data set [1] the following is noted: cited from earlier work.
Data set [2] concerns alpha2 adrenergic receptors. The note with it: in vitro binding studies; cited from earlier work.
For data set [3], the system named is beta adrenergic receptors. The note with it: in vitro binding studies; cited from earlier work.
For data set [4], the target named is T5, 5-HT1A receptors (Homo sapiens, UniProt P08908).
T5 sequence (P08908 1-422): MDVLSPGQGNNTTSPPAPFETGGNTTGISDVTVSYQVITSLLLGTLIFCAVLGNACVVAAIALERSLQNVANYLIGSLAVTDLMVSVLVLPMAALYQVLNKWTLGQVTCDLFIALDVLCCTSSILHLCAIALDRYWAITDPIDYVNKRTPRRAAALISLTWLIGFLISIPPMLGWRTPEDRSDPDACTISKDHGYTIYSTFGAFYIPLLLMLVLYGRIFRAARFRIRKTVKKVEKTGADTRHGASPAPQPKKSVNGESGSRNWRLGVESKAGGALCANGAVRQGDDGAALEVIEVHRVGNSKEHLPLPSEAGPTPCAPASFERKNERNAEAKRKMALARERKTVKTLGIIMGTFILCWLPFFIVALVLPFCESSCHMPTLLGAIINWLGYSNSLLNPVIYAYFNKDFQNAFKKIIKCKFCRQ
Conditions: in vitro binding studies; cited from earlier work.

A further data set concerns cholinergic receptors. Conditions: in vitro binding studies; cited from earlier work.
Another data set has as its system dopaminergic receptors. The note with it: in vitro binding studies; cited from earlier work.
Another data set concerns benzodiazepine receptors. Conditions: in vitro binding studies; cited from earlier work.
In data set [5] the test system is alpha1-adrenergic receptors. Conditions: cited from earlier work.
Data set [6] concerns the target T5, 5-HT1A receptors. As to the kind of experiment: 5-HT1A receptor binding. The arrangement: expressed in transfected cells; host or cells: CHO cells. Conditions: [3H]8-OH-DPAT, transfected CHO cell membranes; read-out: Serotonin Receptor Binding 5-HT1A (IC50). As for the experimental part: as §1
as §2, with “CHO” for “A9L”, “7-15” for “20-40”, “10” for “120”, “MgSO4, 0.5” for “NaCl, 5 mM KCl, 5 mM MgCl2, 1”, “[^3H]8-OH-DPAT” for “[^3H]spiperone”, “8-OH-DPAT.” for “(+)butaclamol.”

T1 sequence (P14416 whole entry): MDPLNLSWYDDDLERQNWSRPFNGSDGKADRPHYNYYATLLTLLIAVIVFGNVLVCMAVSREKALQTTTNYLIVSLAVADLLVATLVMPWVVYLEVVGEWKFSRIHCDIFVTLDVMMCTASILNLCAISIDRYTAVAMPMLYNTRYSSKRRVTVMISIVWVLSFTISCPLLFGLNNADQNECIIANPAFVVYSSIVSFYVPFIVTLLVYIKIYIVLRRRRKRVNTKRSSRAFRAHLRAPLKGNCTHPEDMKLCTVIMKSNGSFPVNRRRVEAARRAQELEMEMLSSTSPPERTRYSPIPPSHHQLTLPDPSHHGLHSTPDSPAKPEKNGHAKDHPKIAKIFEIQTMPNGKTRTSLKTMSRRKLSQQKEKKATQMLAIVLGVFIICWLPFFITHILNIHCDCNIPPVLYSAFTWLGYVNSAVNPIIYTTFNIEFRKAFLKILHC
T2 sequence (P28222 whole entry, species assumed): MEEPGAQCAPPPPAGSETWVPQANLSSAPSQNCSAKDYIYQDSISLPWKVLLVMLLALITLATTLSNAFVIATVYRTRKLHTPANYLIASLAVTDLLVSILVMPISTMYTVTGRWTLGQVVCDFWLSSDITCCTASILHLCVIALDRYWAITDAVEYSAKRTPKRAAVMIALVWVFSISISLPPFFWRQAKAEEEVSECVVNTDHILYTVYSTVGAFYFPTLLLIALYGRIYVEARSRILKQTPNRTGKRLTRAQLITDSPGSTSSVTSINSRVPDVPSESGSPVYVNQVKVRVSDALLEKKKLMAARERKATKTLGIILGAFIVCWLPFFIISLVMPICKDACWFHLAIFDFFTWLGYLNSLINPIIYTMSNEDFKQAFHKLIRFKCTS
T3 sequence (P28221 whole entry, species assumed): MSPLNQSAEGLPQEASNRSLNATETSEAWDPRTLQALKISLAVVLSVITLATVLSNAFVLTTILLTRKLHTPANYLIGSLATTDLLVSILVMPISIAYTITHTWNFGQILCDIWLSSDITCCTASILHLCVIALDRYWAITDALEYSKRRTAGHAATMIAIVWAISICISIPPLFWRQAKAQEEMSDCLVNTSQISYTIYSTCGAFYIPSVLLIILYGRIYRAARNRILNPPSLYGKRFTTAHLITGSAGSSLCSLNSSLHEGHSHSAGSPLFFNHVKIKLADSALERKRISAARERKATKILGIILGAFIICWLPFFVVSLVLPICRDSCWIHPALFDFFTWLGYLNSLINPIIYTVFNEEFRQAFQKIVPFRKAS
T4 sequence (P47898 whole entry, species assumed): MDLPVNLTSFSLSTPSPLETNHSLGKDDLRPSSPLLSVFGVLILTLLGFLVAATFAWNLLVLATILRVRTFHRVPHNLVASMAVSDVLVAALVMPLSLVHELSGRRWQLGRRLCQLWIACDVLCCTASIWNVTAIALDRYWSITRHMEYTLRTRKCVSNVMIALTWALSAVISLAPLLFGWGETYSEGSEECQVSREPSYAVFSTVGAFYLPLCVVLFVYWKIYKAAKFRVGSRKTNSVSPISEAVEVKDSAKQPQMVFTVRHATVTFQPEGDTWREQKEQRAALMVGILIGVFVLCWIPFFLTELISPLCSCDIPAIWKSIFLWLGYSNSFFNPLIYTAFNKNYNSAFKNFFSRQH

For `CCc1nn(CCCN2CCN(c3cccc(Cl)c3)CC2)c(=O)n1CCOc1ccccc1` [Nefazodone], the negative-log IC50 (pIC50) on Human D2 receptor is 6.15; at 5-HT1B it was 5.73; on 5-HT1D, 6.03; at 5-HT5A, 5.81; at α1 Receptor it was 6.51; at 5-HT1A receptors [6], 6.20. In addition, the “kinetics for dose and time (AUC and Cmax)” value in data set [1] (AUC and Cmax increasing more than proportionally with dose and upon multiple dosing) was “nonlinear kinetics”. For the same molecule, in [1] (in vivo), the half-life was 2 to 4 h. The “time of peak plasma concentrations” value in [1] (in vivo) is reported as “about one”. Besides, in data set [1] (low and variable because of extensive metabolism), the absolute bioavailability result was “about 20%”. Moreover, the “affinity for alpha2 adrenergic receptors” value in data set [2] is given as “no significant affinity”. Also, the “affinity for beta adrenergic receptors” value in [3] is “no significant affinity”. Moreover, on 5-HT1A receptors [4], the “affinity for 5-HT1A receptors” value is “no significant affinity”. The “affinity for cholinergic receptors” value in the data set with cholinergic receptors was “no significant affinity”. The “affinity for dopaminergic receptors” value in the data set with dopaminergic receptors is “no significant affinity”. Moreover, the “affinity for benzodiazepine receptors” value in the data set with benzodiazepine receptors is reported as “no significant affinity”. Besides, the “action on alpha1-adrenergic receptors” value in [5] was “antagonize”.
